The results in this text go back to US11407738B2 (Achillion Pharmaceuticals, Inc., priority 2015, dated 2022).

Each structure is given as a SMILES string. pIC50: −log10 of the molar value.

Sequence of Human Factor D (P00746 26-253): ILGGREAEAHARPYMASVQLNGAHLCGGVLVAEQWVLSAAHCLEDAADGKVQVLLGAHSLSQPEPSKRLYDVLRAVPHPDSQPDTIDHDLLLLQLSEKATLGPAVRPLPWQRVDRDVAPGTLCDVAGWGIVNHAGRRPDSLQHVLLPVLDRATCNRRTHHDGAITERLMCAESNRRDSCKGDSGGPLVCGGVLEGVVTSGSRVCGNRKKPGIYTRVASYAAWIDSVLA

For the assay, the target named is Human Factor D (Homo sapiens (Human), UniProt P00746). As to the kind of experiment: Human Factor D assay. Format: biochemical. Particulars: Table 3; Factor D inhibition, substrate Z-L-Lys-SBzl. As for the experimental part:
Human Factor D (purified from human serum, Complement Technology, Inc.) at 80 nM final concentration is incubated with test compound at various concentrations for 5 min at room temperature in 50 mM Tris, 1M NaCl, pH 7.5. A synthetic substrate Z-L-Lys-SBzl and DTNB (Ellman's reagent) are added to final concentrations of 100 μM each. […] IC50 values are calculated by nonlinear regression of complement Factor D reaction rates as a function of test compound concentration.
With `CC(=O)c1cn(CC(=O)N[C@H](C(=O)Nc2cccc(-c3ccccc3Cl)c2F)[C@@H](C)O)c2ccc(-c3cnc(C)nc3)cc12` [Compound 500], the pIC50 was > 6.00.

Take `CC(=O)c1cn(CC(=O)N2C[C@H](F)C[C@H]2C(=O)Nc2cccc(-c3ccccc3Cl)c2F)c2ccc(-c3cnc(O[C@@H]4CO[C@H]5[C@@H]4OC[C@H]5O)nc3)cc12` [Compound 501, (2S,4R)-1-(2-(3-Acetyl-5-(2-((3R,3aR,6R,6aR)-6-hydroxyhexahydrofuro[3,2-b]furan-3-yloxy)pyrimidin-5-yl)-1H-indol-1-yl)acetyl)-N-(2′-chloro-2-fluorobiphenyl-3-yl)-4-fluoropyrrolidine-2-carboxamide]: the pIC50 was > 6.00.

Turning to `CC(=O)c1cn(CC(=O)N2C[C@H](F)C[C@H]2C(=O)Nc2cccc(Br)n2)c2ccc(-c3cnc(O[C@@H]4CO[C@H]5[C@@H]4OC[C@H]5O)nc3)cc12` [Compound 502, (2S,4R)-1-(2-(3-Acetyl-5-(2-((3R,3aR,6R,6aR)-6-hydroxyhexahydrofuro[3,2-b]furan-3-yloxy)pyrimidin-5-yl)-1H-indol-1-yl)acetyl)-N-(6-bromopyridin-2-yl)-4-fluoropyrrolidine-2-carboxamide], the pIC50 is > 6.00.

For the compound `CO[C@@H]1CO[C@H]2[C@@H]1OC[C@H]2Oc1ncc(-c2ccc3c(c2)c(C(C)=O)cn3CC(=O)N2C[C@H](F)C[C@H]2C(=O)Nc2cccc(-c3ccccc3Cl)c2F)cn1` [Compound 503, (2S,4R)-1-(2-(3-Acetyl-5-(2-((3R,3aR,6R,6aR)-6-methoxyhexahydrofuro[3,2-b]furan-3-yloxy)pyrimidin-5-yl)-1H-indol-1-yl)acetyl)-N-(2′-chloro-2-fluorobiphenyl-3-yl)-4-fluoropyrrolidine-2-carboxamide], the pIC50 was > 6.00.

Take `CC(=O)c1nn(CC(=O)N2C[C@H](F)C[C@H]2C(=O)Nc2cccc(S(F)(F)(F)(F)F)c2)c2ccc(-c3cnc(C)nc3)cc12` [Compound 504, (2S,4R)-1-(2-(3-Acetyl-5-(2-methylpyrimidin-5-yl)-1H-indazol-1-yl)acetyl)-4-fluoro-N-(3-(pentafluoro-λ^6-sulfanyl)phenyl)pyrrolidine-2-carboxamide]: the pIC50 was > 6.00.

`CC(=O)c1cn(CC(=O)N[C@H](C(=O)Nc2cccc(Br)n2)[C@@H](C)O)c2ccc(-c3cnc(C)nc3)cc12` [Compound 505, (2S,3R)-2-(2-(3-Acetyl-5-(2-methylpyrimidin-5-yl)-1H-indol-1-yl)acetamido)-N-(6-bromopyridin-2-yl)-3-hydroxybutanamide]: the pIC50 was > 6.00.

`CC(=O)c1cn(CC(=O)N(C)[C@H](C(=O)Nc2cccc(-c3ccccc3Cl)c2F)[C@@H](C)O)c2ccc(-c3cnc(C)nc3)cc12` [Compound 506, (2S,3R)-2-(2-(3-Acetyl-5-(2-methylpyrimidin-5-yl)-1H-indol-1-yl)-N-methylacetamido)-N-(2′-chloro-2-fluorobiphenyl-3-yl)-3-hydroxybutanamide]: the pIC50 was 5.00 to 6.00.

Take `CC(=O)c1cn(CC(=O)NC(CC(F)(F)F)C(=O)Nc2cccc(-c3ccccc3Cl)c2F)c2ccc(-c3cnc(C)nc3)cc12` (stereo not drawn) [Compound 507, 2-(2-(3-Acetyl-5-(2-methylpyrimidin-5-yl)-1H-indol-1-yl)acetamido)-N-(2′-chloro-2-fluorobiphenyl-3-yl)-4,4,4-trifluorobutanamide]: the pIC50 is < 5.00.

As to `CO[C@@H]1CO[C@H]2[C@@H]1OC[C@H]2Oc1ncc(-c2ccc3c(c2)c(C(C)=O)cn3CC(=O)N2C[C@H](F)C[C@H]2C(=O)Nc2cccc(Br)n2)cn1` [Compound 508, (2S,4R)-1-(2-(3-Acetyl-5-(2-((3R,3aR,6R,6aR)-6-methoxyhexahydrofuro[3,2-b]furan-3-yloxy)pyrimidin-5-yl)-1H-indol-1-yl)acetyl)-N-(6-bromopyridin-2-yl)-4-fluoropyrrolidine-2-carboxamide], the pIC50 was > 6.00.

For the compound `COC(=O)C[C@H]1CCCN1C(=O)Cn1nc(C(C)=O)c2cc(-c3cnc(C)nc3)ccc21` [Compound 509, (R)-methyl 2-(1-(2-(3-acetyl-5-(2-methylpyrimidin-5-yl)-1H-indazol-1-yl)acetyl)pyrrolidin-2-yl)acetate], the pIC50 was < 5.00.

Take `CC(=O)c1nn(CC(=O)N2CCC[C@@H]2CC(=O)O)c2ccc(-c3cnc(C)nc3)cc12` [Compound 510, (R)-2-(1-(2-(3-acetyl-5-(2-methylpyrimidin-5-yl)-1H-indazol-1-yl)acetyl)pyrrolidin-2-yl)acetic acid]: the pIC50 was < 5.00.

Consider `CC(=O)c1nn(CC(=O)N2C[C@H](F)C[C@H]2C(=O)Nc2ccc3c(S(=O)(=O)O)cccc3c2)c2ccc(-c3cnc(C)nc3)cc12` [Compound 511, 6-((2S,4R)-1-(2-(3-Acetyl-5-(2-methylpyrimidin-5-yl)-1H-indazol-1-yl)acetyl)-4-fluoropyrrolidine-2-carboxamido)naphthalene-1-sulfonic Acid], for which the negative logarithm of the IC50 (pIC50) was 5.00 to 6.00.

The compound `CC(=O)c1nn(CC(=O)N2C[C@H](F)C[C@H]2C(=O)NC2CCN(c3ccc(C(=O)O)cn3)CC2)c2ccc(-c3cnc(C)nc3)cc12` [Compound 512, 6-(4-((2S,4R)-1-(2-(3-Acetyl-5-(2-methylpyrimidin-5-yl)-1H-indazol-1-yl)acetyl)-4-fluoropyrrolidine-2-carboxamido)piperidin-1-yl)nicotinic Acid] had a pIC50 of 5.00 to 6.00.

Turning to `COC(=O)[C@@H]1C[C@@H](F)CN1C(=O)Cn1nc(C(C)=O)c2cc(-c3cnc(C)nc3)ccc21` [Compound 513, (2S,4R)-methyl 1-(2-(3-acetyl-5-(2-methylpyrimidin-5-yl)-1H-indazol-1-yl)acetyl)-4-fluoropyrrolidine-2-carboxylate], the pIC50 is < 5.00.

`CC(=O)c1nn(CC(=O)N2C[C@H](F)C[C@H]2C(=O)OCc2cccc(Cl)c2F)c2ccc(-c3cnc(C)nc3)cc12` [Compound 515, 3-Chloro-2-fluorobenzyl (2S,4R)-1-(2-(3-acetyl-5-(2-methylpyrimidin-5-yl)-1H-indazol-1-yl)acetyl)-4-fluoropyrrolidine-2-carboxylate] showed a pIC50 of 5.00 to 6.00.

Turning to `CC(=O)c1nn(CC(=O)N2C[C@H](F)C[C@H]2C(=O)SCc2cccc(Cl)c2F)c2ccc(-c3cnc(C)nc3)cc12` [Compound 516, S-(3-Chloro-2-fluorobenzyl) (2S,4R)-1-(2-(3-acetyl-5-(2-methylpyrimidin-5-yl)-1H-indazol-1-yl)acetyl)-4-fluoropyrrolidine-2-carbothioate], the pIC50 was 5.00 to 6.00.

With `CC(=O)c1nn(CC(=O)N2C[C@H](F)C[C@H]2C(=S)NCc2cccc(Cl)c2F)c2ccc(-c3cnc(C)nc3)cc12` [Compound 517, (2S,4R)-1-(2-(3-Acetyl-5-(2-methylpyrimidin-5-yl)-1H-indazol-1-yl)acetyl)-N-(3-chloro-2-fluorobenzyl)-4-fluoropyrrolidine-2-carbothioamide], the pIC50 was > 6.00.

`CC(=O)c1nn2c3ccc(cc13)-c1cnc(nc1)NCCCCCCCCC/C=C\c1cc(Cl)c(F)c(c1)CNC(=O)[C@@H]1C[C@@H](F)CN1C(=O)C2` [Compound 518, (5^2S,5^4R,Z)-2^3-acetyl-9^5-chloro-5^4,9^6-difluoro-2^1H-7,21-diaza-2(5,1)-indazola-1(5,2)-pyrimidina-5(1,2)-pyrrolidina-9(1,3)-benzenacyclohenico-saphan-10-ene-4,6-dione]: the pIC50 was > 6.00.

Consider `CC(=O)c1nn(CC(=O)N2C[C@H](F)C[C@H]2C(=O)Nc2cccc(-c3ccc4scnc4c3)c2F)c2ccc(-c3cnc4cc(C)nn4c3)cc12` [Compound 519, (2S,4R)-1-(2-(3-acetyl-5-(2-methylpyrazolo[1,5-a]pyrimidin-6-yl)-1H-indazol-1-yl)acetyl)-N-(3-(benzo[d]thiazol-5-yl)-2-fluorophenyl)-4-fluoropyrrolidine-2-carboxamide], for which the pIC50 was > 6.00.

On to `CC(=O)c1nn(CC(=O)N2C[C@H](F)C[C@H]2C(=O)Nc2cccc(-c3ccc4scnc4c3)c2F)c2ccc(-c3cnc(C)nc3)cc12` [Compound 520, (2S,4R)-1-(2-(3-acetyl-5-(2-methylpyrimidin-5-yl)-1H-indazol-1-yl)acetyl)-N-(3-(benzo[d]thiazol-5-yl)-2-fluorophenyl)-4-fluoropyrrolidine-2-carboxamide], for which the pIC50 is > 6.00.

On to `CC(=O)c1nn(CC(=O)N2C[C@H](F)C[C@H]2C(=O)Nc2cccc(-c3cc(S(=O)(=O)NC4CC4)ccc3Cl)c2F)c2ccc(-c3cnc(C)nc3)cc12` [Compound 521, (2S,4R)-1-(2-(3-acetyl-5-(2-methylpyrimidin-5-yl)-1H-indazol-1-yl)acetyl)-N-(2′-chloro-5′-(N-cyclopropyl-sulfamoyl)-2-fluorobiphenyl-3-yl)-4-fluoropyrrolidine-2-carboxamide], for which the pIC50 was > 6.00.

As to `CC(=O)Cc1nn(CC(=O)N2C[C@H](F)C[C@H]2C(=O)Nc2cccc(Br)n2)c2ccc(-c3cnc(C)nc3)cc12` [Compound 522, (2S,4R)-N-(6-bromopyridin-2-yl)-4-fluoro-1-(2-(5-(2-methylpyrimidin-5-yl)-3-(2-oxopropyl)-1H-indazol-1-yl)acetyl)pyrrolidine-2-carboxamide], the pIC50 was > 6.00.

For the compound `CC(=O)c1nn(CC(=O)N2C[C@H](F)C[C@H]2C(=O)N2CCn3c(nnc3C(F)(F)F)C2)c2ccc(-c3cnc(C)nc3)cc12` [Compound 524, 2-(3-acetyl-5-(2-methylpyrimidin-5-yl)-1H-indazol-1-yl)-1-((2S,4R)-4-fluoro-2-(3-(trifluoromethyl)-5,6,7,8-tetrahydro-[1,2,4]triazolo[4,3-a]pyrazine-7-carbonyl)pyrrolidin-1-yl)ethanone], the pIC50 is < 5.00.

In the case of `CC(=O)c1nn(CC(=O)N2C[C@H](F)C[C@H]2C(=O)Nc2cccc(-c3cc(S(N)(=O)=O)ccc3Cl)c2F)c2ccc(-c3cnc(C)nc3)cc12` [Compound 525, (2S,4R)-1-(2-(3-acetyl-5-(2-methylpyrimidin-5-yl)-1H-indazol-1-yl)acetyl)-N-(2′-chloro-2-fluoro-5′-sulfamoylbiphenyl-3-yl)-4-fluoropyrrolidine-2-carboxamide], the pIC50 was > 6.00.

As usually defined, the pIC50 is −log10 of the IC50, conventionally taken in molar units.
